Assay results as given in article PMC9267128, “New 2-[(4-Amino-6-N-substituted-1,3,5-triazin-2-yl)methylthio]-N-(imidazolidin-2-ylidene)-4-chloro-5-methylbenzenesulfonamide Derivatives, Design, Synthesis and Anticancer Evaluation” (International Journal of Molecular Sciences, 2022).

Experiments:
[1] = tested on: HaCaT (human keratinocyte cell line); assay: MTT cell viability assay, non-cancerous HaCaT; type: cell-based; settings: Homo sapiens, HaCaT, 72 h, 72 h of incubation, non-cancerous keratinocytes
Method: (§1) Compounds 20–162 were evaluated in vitro for their effects on the viability of three cancer cell lines: HCT-116 (colon cancer), MCF-7 (breast cancer) and HeLa (cervical cancer), as well as the non-cancerous keratinocyte cell line (HaCaT). […] Analysis was performed using an MTT assay after 72 h of incubation.
(§2) All chemicals, if not stated otherwise, were obtained from Sigma–Aldrich (St. Louis, MO, USA). The HCT-116 cell line was purchased from ATCC (ATCC-No: CCL-247), while the MCF-7, HeLa and HaCaT cell lines were purchased from Cell Lines Services (Eppelheim, Germany). Cells were cultured in Dulbecco’s modified Eagle’s medium (DMEM) supplemented with 10% fetal bovine serum, 2 mM glutamine, 100 units/mL penicillin and 100 µg/mL streptomycin. Cultures were maintained in a humidified atmosphere with 5% carbon dioxide at 37 °C in an incubator (Heraceus, HeraCell).
(§3) Cell viability was examined using the MTT [3-(4,5-dimethylthiazol-2-yl)-2,5-diphenyltetrazolium bromide] assay. Cells were seeded in 96-well plates at a density of 3 × 10^3 cells/well and treated for 72 h with the tested compounds in the concentration range of 1–100 µM. Then, MTT (0.5 mg/mL) was added to the medium and cells were further incubated for 2 h at 37 °C. In the next stage, cells were lysed with DMSO and the absorbance of the formazan solution was measured at 550 nm with a plate reader (1420 multilabel counter, Victor, Jügesheim, Germany). The experiment was performed in triplicate. Values are expressed as the mean ± SD of at least three independent experiments. Cisplatin was used as a positive control.

[2] = tested on: MCF-7 (breast cancer); assay: MTT cell viability assay, MCF-7; type: cell-based, human; settings: for IC50: Homo sapiens, MCF7, 72 h, MTT assay, 72 h of incubation; for Selectivity Index (SI) MCF-7: IC50 value toward HaCaT cells/IC50 value toward MCF-7
Method: as §1, §2, §3

[3] = tested on: HCT-116 (colon cancer); assay: MTT cell viability assay, HCT-116; type: cell-based, human; settings: for IC50: MTT assay, 72 h of incubation; for Selectivity Index (SI) HCT-116: IC50 value toward HaCaT cells/IC50 value toward HCT-116
Method: (§4) Analysis was performed using an MTT assay after 72 h of incubation.
as §2
as §3, with “experiments.” for “experiments. Cisplatin was used as a positive control.”

[4] = tested on: HeLa (cervical cancer); assay: MTT cell viability assay, HeLa; type: cell-based, human; settings: for IC50: Homo sapiens, HeLa, MTT assay, 72 h of incubation; for Selectivity Index (SI) HeLa: IC50 value toward HaCaT cells/IC50 value toward HeLa
Method: as §4, §2
as §3, with “experiments.” for “experiments. Cisplatin was used as a positive control.”

SMILES	IC50 [1] [µM]	IC50 [2] [µM]	IC50 ([3]; Homo sapiens, HCT-116, 72 h) [µM]	IC50 [4] [µM]	Selectivity Index (SI) MCF-7 [2]	Selectivity Index (SI) HCT-116 [3]	IC50 [3] [µM]	Selectivity Index (SI) HeLa [4]
Cc1cc(S(=O)(=O)N=C2NCCN2Cc2ccc(F)cc2)c(SCc2nc(N)nc(Nc3ccc(C(F)(F)F)cc3)n2)cc1Cl [Compound 87]	34 ± 1	7 ± 0.3	10 ± 0.4	15 ± 1	–	–	–	–
Cc1cc(S(=O)(=O)N=C2NCCN2Cc2ccc(C(F)(F)F)cc2)c(SCc2nc(N)nc(N3CCN(c4cccc(Cl)c4)CC3)n2)cc1Cl [Compound 137]	21 ± 1	7 ± 0.4	6 ± 0.2	12 ± 0.6	–	–	–	–
Cc1cc(S(=O)(=O)N=C2NCCN2Cc2ccc(C(F)(F)F)cc2)c(SCc2nc(N)nc(N3CCCc4ccccc43)n2)cc1Cl [Compound 121]	24 ± 1	14 ± 1	6 ± 0.1	13 ± 1	–	–	–	–
Cc1cc(S(=O)(=O)N=C2NCCN2)c(SCc2nc(N)nc(N3CCN(c4ccccc4)CC3)n2)cc1Cl [Compound 31]	26 ± 1	–	–	16 ± 0.1	–	–	–	–
Cc1cc(S(=O)(=O)N=C2NCCN2)c(SCc2nc(N)nc(N3CCN(c4cccc(C(F)(F)F)c4)CC3)n2)cc1Cl [Compound 35]	32 ± 2	16 ± 1	14 ± 0.7	16 ± 1	–	–	–	–
Cc1cc(S(=O)(=O)N=C2NCCN2)c(SCc2nc(N)nc(N3CCN(c4ccc(Cl)cc4)CC3)n2)cc1Cl [Compound 36]	28 ± 1	13 ± 0.1	12 ± 0.1	12 ± 0.1	–	–	–	–
Cc1cc(S(=O)(=O)N=C2NCCCN2Cc2ccc(C(F)(F)F)cc2)c(SCc2nc(N)nc(N3CCN(Cc4ccccc4)CC3)n2)cc1Cl [Compound 162]	25 ± 0.7	6 ± 0.2	< 6	12.5 ± 0.5	4.1	4.5	5.5 ± 0.3	2.0
Cc1cc(S(=O)(=O)N=C2NCCN2Cc2ccc(F)cc2)c(SCc2nc(N)nc(N3CCCc4ccccc43)n2)cc1Cl [Compound 84]	27 ± 1	7 ± 0.1	9 ± 0.5	15 ± 0.6	–	–	–	–
Cc1cc(S(=O)(=O)N=C2NCCN2Cc2ccccc2)c(SCc2nc(N)nc(N3CCOCC3)n2)cc1Cl [Compound 46]	–	23 ± 0.7	21 ± 0.2	37 ± 0.4	–	–	–	–
Cc1cc(S(=O)(=O)N=C2NCCN2Cc2ccccc2)c(SCc2nc(N)nc(N3CCN(c4ccc(F)c(Cl)c4)CC3)n2)cc1Cl [Compound 65]	23 ± 1	11 ± 0.5	7 ± 0.2	11 ± 0.3	–	–	–	–
Cc1cc(S(=O)(=O)N=C2NCCCN2Cc2ccc(C(F)(F)F)cc2)c(SCc2nc(N)nc(N3CCN(c4cccc(C(F)(F)F)c4)CC3)n2)cc1Cl [Compound 160]	23 ± 1	12 ± 0.5	10.5 ± 0.4	8.5 ± 0.3	–	–	–	–
Cc1cc(S(=O)(=O)N=C2NCCN2)c(SCc2nc(N)nc(N3CCN(c4ccc(F)c(Cl)c4)CC3)n2)cc1Cl [Compound 39]	37 ± 2	17 ± 1	15 ± 1	18 ± 1	–	–	–	–
Cc1cc(S(=O)(=O)N=C2NCCN2Cc2ccccc2)c(SCc2nc(N)nc(NCc3ccccc3)n2)cc1Cl [Compound 53]	81 ± 4	11 ± 0.5	10 ± 0.5	85 ± 2	–	–	–	–
Cc1cc(S(=O)(=O)N=C2NCCN2Cc2ccc(C(F)(F)F)cc2)c(SCc2nc(N)nc(N3CCN(c4ccccc4)CC3)n2)cc1Cl [Compound 131]	25 ± 1	15 ± 0.5	7 ± 0.2	13 ± 0.5	–	–	–	–
Cc1cc(S(=O)(=O)N=C2NCCN2Cc2cc(C(F)(F)F)cc(C(F)(F)F)c2)c(SCc2nc(N)nc(N3CCCc4ccccc43)n2)cc1Cl [Compound 145]	36 ± 1	13 ± 0.8	13 ± 0.5	16.5 ± 1	–	–	–	–
Cc1cc(S(=O)(=O)N=C2NCCN2Cc2ccc(F)cc2)c(SCc2nc(N)nc(Nc3ccccc3)n2)cc1Cl [Compound 85]	38 ± 1	23 ± 1	15 ± 0.5	21 ± 4	–	–	–	–
Cc1cc(S(=O)(=O)N=C2NCCN2Cc2ccc(F)cc2)c(SCc2nc(N)nc(N3CCN(c4cccc(Cl)c4)CC3)n2)cc1Cl [Compound 97]	24 ± 1	7 ± 0.4	6 ± 0.2	9 ± 0.3	–	–	–	–
Cc1cc(S(=O)(=O)N=C2NCCN2Cc2ccccc2)c(SCc2nc(N)nc(Nc3ccccc3)n2)cc1Cl [Compound 50]	51 ± 2	43 ± 1	18 ± 0.2	35 ± 2	–	–	–	–
Cc1cc(S(=O)(=O)N=C2NCCN2Cc2ccc(Br)cc2)c(SCc2nc(N)nc(N3CCN(c4cccc(C(F)(F)F)c4)CC3)n2)cc1Cl [Compound 108]	24 ± 1	11 ± 0.5	10.5 ± 0.5	11 ± 0.5	–	–	–	–
COc1ccccc1N1CCN(c2nc(N)nc(CSc3cc(Cl)c(C)cc3S(=O)(=O)N=C3NCCN3)n2)CC1 [Compound 41]	51 ± 3	46 ± 1	21 ± 1	39 ± 2	–	–	–	–
Cc1cc(S(=O)(=O)N=C2NCCN2Cc2cc(C(F)(F)F)cc(C(F)(F)F)c2)c(SCc2nc(N)nc(N3CCC(Cc4ccccc4)CC3)n2)cc1Cl [Compound 157]	23 ± 1	6 ± 0.3	5 ± 0.1	13 ± 0.5	3.8	4.6	–	1.7
Cc1cc(S(=O)(=O)N=C2NCCN2)c(SCc2nc(N)nc(N(C)c3ccccc3)n2)cc1Cl [Compound 28]	–	45 ± 0.5	58 ± 0.6	80 ± 1	–	–	–	–
Cc1cc(S(=O)(=O)N=C2NCCN2Cc2cccc3ccccc23)c(SCc2nc(N)nc(N3CCN(c4ccc(Cl)cc4)CC3)n2)cc1Cl [Compound 79]	–	98 ± 5	94 ± 2	88 ± 3	–	–	–	–
Cc1cc(S(=O)(=O)N=C2NCCN2)c(SCc2nc(N)nc(N(C)C)n2)cc1Cl [Compound 20]	–	220 ± 6	110 ± 2	115 ± 7	–	–	–	–
CC1=NN(c2nc(N)nc(CSc3cc(Cl)c(C)cc3S(=O)(=O)N=C3NCCN3)n2)C(C)(C)C1 [Compound 22]	–	130 ± 4	140 ± 3	110 ± 4	–	–	–	–
Cc1cc(S(=O)(=O)N=C2NCCN2Cc2cccc3ccccc23)c(SCc2nc(N)nc(N3CCN(c4ccc(Cl)c(Cl)c4)CC3)n2)cc1Cl [Compound 80]	–	89 ± 4	79 ± 2	98 ± 5	–	–	–	–
Cc1cc(S(=O)(=O)N=C2NCCN2)c(SCc2nc(N)nc(N3CCOCC3)n2)cc1Cl [Compound 21]	–	190 ± 2	350 ± 7	510 ± 5	–	–	–	–
Cc1cc(S(=O)(=O)N=C2NCCN2)c(SCc2nc(N)nc(N3CCc4ccccc43)n2)cc1Cl [Compound 23]	–	130 ± 3	142 ± 4	150 ± 2	–	–	–	–
